Patent US5462926A (Biomeasure, Inc., priority 1993, dated 1995)
Where a SMILES comes first, the peptide text is derived from it. Bridges are numbered along the chain shown (N, C = ends). [ ]: non-standard residue; d: D form. 2Nal = N[C@@H](Cc1ccc2ccccc2c1)C(=O)O; d2Nal = N[C@H](Cc1ccc2ccccc2c1)C(=O)O

Experiments:
Assay type in all cases: binding
Conditions in all cases: 1 μM
CCKB = molecular target: T1, CCKB (Rattus norvegicus, UniProt P30553); experiment: CCKB membrane receptor assay, rat cerebral cortex
T1 construct: rat cerebral cortex (CCKB, PYY, neurotensin,; from tissue; host or cells: rat cerebral cortex membranes

TRH receptor = experiment: TRH membrane assay, rat forebrain
α2-adrenergic receptor = experiment: α2-adrenergic membrane receptor assay, rat cerebral cortex
β1-adrenergic receptor = molecular target: T2, β1-adrenergic receptor (Homo sapiens, UniProt P08588); experiment: β1-adrenergic membrane receptor assay, [3H]dihydroalprenolol
T2 construct: receptors on plasma membranes on various tissues determined as described in METHODS; from tissue; host or cells: plasma membranes

[1] = system: muscarinic cholinergic receptor; experiment: Muscarinic cholinergic membrane receptor assay, rat cerebral cortex
[2] = system: benzodiazepine-neural receptor; experiment: Neural benzodiazepine membrane receptor assay, rat cerebral cortex
[3] = molecular target: T3, benzodiazepine-peripheral receptor (Rattus norvegicus, UniProt P16257); experiment: Peripheral benzodiazepine membrane receptor assay, rat cerebral cortex
T3 construct: from tissue; host or cells: rat cerebral cortex membranes

delta opioid receptor = molecular target: T4, delta opioid receptor (Rattus norvegicus, UniProt P33533); experiment: Delta opioid membrane assay, rat forebrain
T4 construct: rat forebrain (TRH, mu and delta opioid membrane assays); from tissue; host or cells: rat forebrain membranes

[4] = molecular target: T5, N-methyl D-aspartate receptors (Rattus norvegicus, UniProt P35439); experiment: N-methyl-D-aspartate membrane receptor assay, rat cerebral cortex
T5 construct: from tissue; host or cells: rat cerebral cortex membranes

T2 sequence (P08588 whole entry): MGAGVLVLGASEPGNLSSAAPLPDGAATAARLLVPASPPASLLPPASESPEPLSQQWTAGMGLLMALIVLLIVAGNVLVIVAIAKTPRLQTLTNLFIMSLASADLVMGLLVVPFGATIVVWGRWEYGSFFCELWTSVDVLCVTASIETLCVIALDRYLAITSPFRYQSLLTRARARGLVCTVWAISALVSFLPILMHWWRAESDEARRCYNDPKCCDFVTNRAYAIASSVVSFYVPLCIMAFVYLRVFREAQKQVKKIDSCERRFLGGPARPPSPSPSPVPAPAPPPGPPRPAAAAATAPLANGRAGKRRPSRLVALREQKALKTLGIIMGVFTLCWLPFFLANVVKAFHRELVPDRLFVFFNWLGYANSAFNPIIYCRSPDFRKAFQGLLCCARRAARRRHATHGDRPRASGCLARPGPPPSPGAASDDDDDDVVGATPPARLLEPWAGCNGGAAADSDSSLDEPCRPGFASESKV
T1 sequence (P30553 whole entry): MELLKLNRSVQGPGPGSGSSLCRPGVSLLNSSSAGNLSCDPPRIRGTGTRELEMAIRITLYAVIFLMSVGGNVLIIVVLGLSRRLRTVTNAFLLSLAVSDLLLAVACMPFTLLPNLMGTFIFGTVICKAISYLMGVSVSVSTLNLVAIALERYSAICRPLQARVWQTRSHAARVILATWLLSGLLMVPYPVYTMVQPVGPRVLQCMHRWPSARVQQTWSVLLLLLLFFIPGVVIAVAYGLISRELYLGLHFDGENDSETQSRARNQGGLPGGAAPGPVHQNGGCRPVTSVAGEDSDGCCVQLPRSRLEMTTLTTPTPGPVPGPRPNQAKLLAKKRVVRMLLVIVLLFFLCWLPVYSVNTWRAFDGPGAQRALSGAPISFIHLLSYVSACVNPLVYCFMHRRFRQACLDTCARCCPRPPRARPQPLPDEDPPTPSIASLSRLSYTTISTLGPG
T4 sequence (P33533 whole entry): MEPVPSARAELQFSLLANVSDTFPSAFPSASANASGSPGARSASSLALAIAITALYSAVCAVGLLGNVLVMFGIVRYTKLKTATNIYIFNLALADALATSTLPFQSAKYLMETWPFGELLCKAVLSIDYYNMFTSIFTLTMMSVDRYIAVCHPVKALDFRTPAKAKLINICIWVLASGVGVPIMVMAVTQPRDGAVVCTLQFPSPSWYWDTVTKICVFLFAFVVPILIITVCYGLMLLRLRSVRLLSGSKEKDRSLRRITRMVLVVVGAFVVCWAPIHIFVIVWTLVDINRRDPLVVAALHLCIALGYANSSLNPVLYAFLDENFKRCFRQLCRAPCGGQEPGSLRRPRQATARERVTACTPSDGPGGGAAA
T3 sequence (P16257 whole entry): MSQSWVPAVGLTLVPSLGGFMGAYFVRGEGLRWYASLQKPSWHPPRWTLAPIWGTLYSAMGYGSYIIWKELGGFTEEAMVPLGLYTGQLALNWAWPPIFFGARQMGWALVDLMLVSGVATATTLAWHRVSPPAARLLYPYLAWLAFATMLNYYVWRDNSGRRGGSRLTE

CC(C)[C@@H]1NC(=O)[C@H](CCCCN)NC(=O)[C@@H](Cc2c[nH]c3ccccc23)NC(=O)[C@H](Cc2ccc(O)cc2)NC(=O)[C@@H](NC(=O)[C@H](N)Cc2ccc3ccccc3c2)CSSC[C@@H](C(=O)N[C@@H](Cc2ccc3ccccc3c2)C(N)=O)NC1=O [Analog #1, H2 -D-Nal-Cys-Tyr-D-Trp-Lys-Val-Cys-Nal-NH2] (H-[d2Nal]CY[dW]KVC[2Nal]-NH2; disulfide 2-7)
did not inhibit binding: inhibition of binding to CCKB receptors (CCKB) | inhibition of binding to TRH receptors (TRH receptor) | inhibition of binding to α2-adrenergic receptors (α2-adrenergic receptor) | inhibition of binding to β1-adrenergic receptors (β1-adrenergic receptor) | inhibition of binding to muscarinic cholinergic receptors [1] | inhibition of binding to benzodiazepine-neural receptors [2] | inhibition of binding to benzodiazepine-peripheral receptors [3] | inhibition of binding to delta opioid receptors (delta opioid receptor) | inhibition of binding to N-methyl D-aspartate receptors [4]
